Source: patent US20090285773A1, “Hepatitis C Virus Inhibitors” (Bristol-Myers Squibb Company, priority 2008, published 2009)

Molecular target: T1, NS3/4A protease complex (UniProt P27958)
T1 construct: fused on or other part: three-lysine solubilising tail at the C-terminus of NS4A; probably a His tag from pET21b (Ni-NTA purification)
Assay: HCV NS3/4A protease complex enzyme assay (strain not stated)
Assay type: biochemical
Conditions: Table 2; strain and unit inferred
Description: The purpose of this in vitro assay was to measure the inhibition of HCV NS3 protease complexes, derived from the BMS strain, H77 strain or J4L6S strain, as described above, by compounds of the present disclosure. This assay provides an indication of how effective compounds of the present disclosure would be in inhibiting HCV NS3 proteolytic activity.
In order to monitor HCV NS3/4A protease activity, an NS3/4A peptide substrate was used. The substrate was RET S1 (Resonance Energy Transfer Depsipeptide Substrate; AnaSpec, Inc. cat #22991)(FRET peptide), described by Taliani et al. in Anal. Biochem. 240(2):60-67 (1996). The sequence of this peptide is loosely based on the NS4A/NS4B natural cleavage site for the HCV NS3 protease except there is an ester linkage rather than an amide bond at the cleavage site. The peptide also contains a fluorescence donor, EDANS, near one end of the peptide and an acceptor, DABCYL, near the other end. The fluorescence of the peptide is quenched by […] resonance energy transfer (RET) between the donor and the acceptor, but as the NS3 protease cleaves the peptide the products are released from RET quenching and the fluorescence of the donor becomes apparent.
The peptide substrate was incubated with one of the three recombinant NS3/4A protease complexes, in the absence or presence of a compound of the present disclosure. The inhibitory effects of a compound were determined by monitoring the formation of fluorescent reaction product in real time using a Cytofluor Series 4000.
Assay buffer: 50 mM HEPES, pH 7.5; 0.15 M NaCl; 0.1% Triton; 15% Glycerol; 10 mM βME. Substrate: 2 μM final concentration (from a 2 mM stock solution in DMSO stored at −20° C.). HCV NS3/4A protease type 1a (1b), 2-3 nM final concentration (from a 5 μM stock solution in 25 mM HEPES, pH 7.5, 20% glycerol, 300 mM NaCl, 0.2% Triton-X100, 10 mM βME). For compounds with potencies approaching the assay limit, the assay was made more sensitive by adding 50 μg/ml Bovine Serum Albumin (Sigma) to the assay buffer and reducing the end protease concentration to 300 pM.
The assay was performed in a 96-well polystyrene black plate from Falcon. Each well contained 25 μl NS3/4A protease complex in assay buffer, 50 μl of a compound of the present disclosure in 10% DMSO/assay buffer and 25 μl substrate in assay buffer. A control (no compound) was also prepared on the same assay plate. The enzyme complex was mixed with compound or control solution for 1 min before initiating the enzymatic reaction by the addition of substrate. The assay plate was read immediately using the Cytofluor Series 4000 (Perspective Biosystems). The instrument was set to read an emission of […] at 25° C. Reactions were generally followed for approximately 15 min.
The percent inhibition was calculated with the following equation: […]
where δF is the change in fluorescence over the linear range of the curve. A non-linear curve fit was applied to the inhibition-concentration data, and the 50% effective concentration (IC50) was calculated by the use of Excel XLfit software using the equation, y=A+((B−A)/(1+((C/x)̂D))).

T1 sequence (P27958 1027-1657, one chain of several): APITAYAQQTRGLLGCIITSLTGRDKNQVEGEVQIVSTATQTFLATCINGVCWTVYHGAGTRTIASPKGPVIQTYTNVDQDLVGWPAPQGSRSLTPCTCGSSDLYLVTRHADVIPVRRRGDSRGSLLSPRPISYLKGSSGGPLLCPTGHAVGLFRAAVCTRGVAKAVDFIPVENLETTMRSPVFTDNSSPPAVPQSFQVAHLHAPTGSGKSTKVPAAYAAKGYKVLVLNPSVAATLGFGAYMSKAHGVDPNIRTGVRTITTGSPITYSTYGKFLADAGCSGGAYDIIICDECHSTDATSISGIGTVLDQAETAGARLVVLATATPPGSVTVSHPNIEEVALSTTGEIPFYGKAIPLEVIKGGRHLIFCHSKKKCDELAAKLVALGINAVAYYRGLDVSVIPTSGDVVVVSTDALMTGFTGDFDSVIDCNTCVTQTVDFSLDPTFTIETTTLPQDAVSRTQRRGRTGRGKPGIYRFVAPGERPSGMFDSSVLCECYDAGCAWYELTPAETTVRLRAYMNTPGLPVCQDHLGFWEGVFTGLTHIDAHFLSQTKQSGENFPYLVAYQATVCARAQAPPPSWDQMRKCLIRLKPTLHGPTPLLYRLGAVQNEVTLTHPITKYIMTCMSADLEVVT

SMILES: COc1ccc2c(O[C@@H]3C[C@H]4C(=O)N[C@]5(C(=O)NS(=O)(=O)C6CC6)C[C@H]5/C=C\CCCCC[C@H](Nc5ccc(OC)nc5)C(=O)N4C3)nccc2c1 (single isomer, unassigned) [Compound 1]
- IC50: 7 nM
